Results from patent US20060159735A1, “Method of reclaiming drug compound from liposomal drug manufacturing stream” (priority 2005, published 2006).

Experiments:
Assay type in all cases: physicochemical
[1] = Partitioning of HSPC and cholesterol into chloroform in the presence of OSI-7904; conditions: for retained in the aqueous phase: first extraction, 17 mg/mL OSI-7904 with ~0.5 mg/mL HSPC:cholesterol mix, 1:3 CHCl3:Aq, shaking 1 hour; for amounts retained in the aqueous phase: second extraction with chloroform of the aqueous phase
Protocol: A 17 mg/mL OSI-7904 solution containing ˜0.5 mg/mL, 2:1 molar ratio HSPC:cholesterol mix was produced and extracted by mechanical shaking for 1 hour with chloroform at the 1:3 (CHCl3:Aq) ratio. Before partition the aqueous phase was hazy and yellow in color. After extraction the upper aqueous phase was clear and yellow.
The upper aqueous phase was analyzed for HSPC, cholesterol and OSI-7904. Approximately 94% of OSI-7904 was retained in the aqueous phase and approximately 2%, 8% and 8% retained of cholesterol, DSPC and PSPC respectively. This aqueous phase was extracted a second time with chloroform. The amounts retained in the aqueous phase for PSPC, DSPC and cholesterol were approximately 65%, 100% and 67% respectively for this second extraction.

[2] = Partitioning of HSPC and cholesterol dispersions into chloroform; conditions: 1:3 CHCl3:Aq volume ratio, HPLC; for extraction efficiency with chloroform: 0.1 mg/mL cholesterol:HSPC dispersion
Protocol: Concentrations of 1 mg/mL and 0.1 mg/mL of the 2:1 molar ratio HSPC:cholesterol spray dried mix dispersions were produced. Then the mixes were extracted with chloroform and varying chloroform:aqueous ratios at 1:3, 1:1 and 3:1. […] The other ratios produced milky emulsions in the aqueous phase.
HSPC consists of two main components: PSPC (1-palmitoyl-2-stearoyl-sn-glyero-3-phosphocholine) and DSPC (1,2-distearoyl-sn-glycero-3-phosphocholine). […] For the 0.1 mg/mL dispersion the extraction was less efficient; being ˜95% for cholesterol, ˜63% for PSPC and ˜24% for DSPC.

[3] = Potentiometric titration of OSI-7904 (Sirius Glpka autotitrator), with and without chloroform; solubility
Text: The ability of OSI-7904 to partition into chloroform as a function of pH was studied using a Sirius Glpka autotitrator. Attempts were first made to determine the pKas of the OSI-7904 drug substance using the Sirius autotitrator, since these values are required when determining the partition coefficients by potentiometric titration. […] It is usual practice, with a compound of low solubility, to titrate the compound with various amounts of cosolvent present to determine apparent pKas and then perform an extrapolation back to 100% aqueous to calculate the true thermodynamic pKa. However, even with cosolvent (methanol) present, precipitation of the drug was still a problem and reproducible data sets were not obtained. […] As a result, extraction of OSI-7904 with chloroform is not a practical proposition since large volumes of chloroform would be required to solubilise the drug.
In this case, the Bjerrum plot is for the titration of 10 mL of 0.33 mM OSI-7904 aqueous solution in the presence of 5 mL chloroform. Titration started at low pH. The sharp change in slope at pH˜4.5 and lack of symmetry in the curve is indicative of undissolved compound present which then dissolves as the pH is increased.

[4] = Chloroform extraction of OSI-7904 solution with trace (saturated solution) HSPC and cholesterol; conditions: 1.2 mg/mL OSI-7904, trace HSPC and cholesterol; 1:3 CHCl3:Aq
Text: The work above had been carried out with dispersions of solid HSPC:cholesterol. It was thought that the actual permeate would only contain materials in free solution. A better model for this was considered to be saturating some water with the HSPC:cholesterol mix, filtering out the solid and working with this clarified solution. A saturated solution prepared in this way typically contained only traces of cholesterol and HSPC. It was noticed however that on one occasion when the dispersion of HSPC:cholesterol in water had been stirred continuously for approximately four days, the filtrate was opalescent and not clear and the levels of the HSPC and cholesterol were much higher. It was thought the most likely explanation for this was that initially multilamellar liposomes were formed and these were filtered out leaving only HSPC and cholesterol that are in free solution or in micelles. On extending mixing, the multilamellar liposomes are broken down to smaller particles and these are able to pass through the pores of the filter.
A 1.2 mg/mL solution of OSI-7904 was prepared containing trace levels of HSPC and cholesterol in solution (no solid present). This was extracted with chloroform in the 1:3 ratio (8.8 mL:26.5 mL, CHCl3:Aq) by manually shaking for 1 min. […] The aqueous phase was filtered through a 0.45 μm aperture filter and analyzed for OSI-7904, cholesterol and HSPC by HPLC. […]

Row | retained in the aqueous phase [1] | amounts retained in the aqueous phase [1] | extraction efficiency with chloroform [2] | solubility in aqueous media ([3]; at low pHs) | solubility in chloroform ([3]; even at low pH, titration in presence of chloroform) | solubility ([3]; with aqueous solution present during titration, organic solvent or mixture, from Bjerrum plot, titration of 10 mL 0.33 mM aqueous solution in presence of 5 mL chloroform) | levels after extraction with chloroform ([2]; 1 mg/mL cholesterol:HSPC dispersion) | change in concentration in the aqueous phase after extraction with chloroform [4] | Structure (SMILES)
1 | ~8% | ~100% | ~24% |  |  |  |  |  | CCCCCCCCCCCCCCCCCC(=O)OC[C@H](COP(=O)([O-])OCC[N+](C)(C)C)OC(=O)CCCCCCCCCCCCCCCCC [DSPC, 1,2-distearoyl-sn-glycero-3-phosphocholine]
2 | Approximately 94% |  |  | very insoluble | very low | < 400 µg/mL |  |  | Cc1nc2ccc3ccc(CNc4ccc5c(c4)CN([C@@H](CCC(=O)O)C(=O)O)C5=O)cc3c2c(=O)[nH]1 [OSI-7904]
3 | ~8% | approximately 65% | ~63% |  |  |  |  |  | CCCCCCCCCCCCCCCCCC(=O)O[C@H](COC(=O)CCCCCCCCCCCCCCC)COP(=O)([O-])OCC[N+](C)(C)C [PSPC, 1-palmitoyl-2-stearoyl-sn-glyero-3-phosphocholine]
4 | approximately 2% | ~67% | ~95% |  |  |  | undetectable | no decrease | CC(C)CCC[C@@H](C)[C@H]1CC[C@H]2[C@@H]3CC=C4C[C@@H](O)CC[C@]4(C)[C@H]3CC[C@]12C [cholesterol]
